Data on 18 molecules can be found in patent US20090311217A1, “3-SUBSTITUTED-1H-INDOLE COMPOUNDS, THEIR USE AS MTOR KINASE AND PI3 KINASE INHIBITORS, AND THEIR SYNTHESES” (priority 2008, published 2009).

Where two headings read alike, the source gives them in different places. Some results are limits rather than exact numbers.

What all share (format): biochemical
For one test, the target named is PI3K-alpha (Homo sapiens, UniProt P42336). Put plainly: PI3K-alpha fluorescence polarization assay. (In fluorescence polarisation assays a small probe gives low polarisation when free and higher when bound to something large.)
The target in the next test is PI3K-beta (Homo sapiens, UniProt P42338). Put plainly: PI3K-beta fluorescence polarization assay. The settings on record: read-out: PI3Kβ Avg. IC50. On the procedure: PI3K-Alpha, PI3K-Beta, PI3K-Gamma, and PI3K-delta Fluorescence Polarization Assay Protocols
PI3-Kinase reactions were performed in 5 mM HEPES, pH 7, 2.5 mM MgCl2, and 25 μM ATP, with diC8-PI(4,5)P2 (Echelon, Salt Lake City Utah) as substrate. Nunc 384-well black polypropylene fluorescent plates were used for PI3K assays. Reactions were quenched by the addition of EDTA to a final concentration of 10 mM. Final reaction volumes were 10 μl. For evaluation of PI3K inhibitors, 5 ng of enzyme (PI3K-alpha, beta, gamma, or delta) and 2.5 μM of substrate was used per […] reaction volume, and inhibitor concentrations ranged from 100 μM to 20 μM; the final level of DMSO in reactions never exceeded 2%. Reactions were allowed to proceed for one hour at 25° C. After 1 hour, GST-tagged GRP1 (general receptor for phosphoinositides) PH domain fusion protein was added to a final concentration of 100 nM, and BODIPY-TMRI(1,3,4,5)P4 (Echelon) was also added to a final concentration of 5 nM. Final sample volumes were 25 μl with a final DMSO concentration of 0.8%. Assay Plates were read on Perkin-Elmer Envision plate readers with appropriate filters for Tamra [BODIPY-TMRI(1,3,4,5)P4]. Data obtained were used to calculate enzymatic activity and enzyme inhibition by inhibitor compounds.

Another test deals with PI3K-gamma (Homo sapiens, UniProt P48736). Put plainly: PI3K-gamma fluorescence polarization assay. The settings on record: PI3Kγ Avg. IC50. The method in brief: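 Each isoform (5 ng) phosphorylated 2.5 μM diC8-PI(4,5)P2 at 25 μM ATP for one hour at 25° C in the presence of inhibitor. Reactions were then stopped with EDTA, and product was detected by fluorescence polarization using a GST-GRP1 PH domain and a BODIPY-TMR-labelled IP4 tracer.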

A further test deals with PI3K-delta (Homo sapiens, UniProt O00329). Put plainly: PI3K-delta fluorescence polarization assay. The settings on record: read-out: PI3Kδ Avg. IC50.
The next test concerns the target T1, human TOR (Homo sapiens, UniProt P42345).
T1 construct: FLAG
Put plainly: mTOR enzyme assay (DELFIA, His6-S6K substrate). To be noted: read-out: mTOR Kinase Avg. IC50.

PI3K-gamma, sequence (P48736 whole entry, species assumed, the tested form may be a part, canonical isoform): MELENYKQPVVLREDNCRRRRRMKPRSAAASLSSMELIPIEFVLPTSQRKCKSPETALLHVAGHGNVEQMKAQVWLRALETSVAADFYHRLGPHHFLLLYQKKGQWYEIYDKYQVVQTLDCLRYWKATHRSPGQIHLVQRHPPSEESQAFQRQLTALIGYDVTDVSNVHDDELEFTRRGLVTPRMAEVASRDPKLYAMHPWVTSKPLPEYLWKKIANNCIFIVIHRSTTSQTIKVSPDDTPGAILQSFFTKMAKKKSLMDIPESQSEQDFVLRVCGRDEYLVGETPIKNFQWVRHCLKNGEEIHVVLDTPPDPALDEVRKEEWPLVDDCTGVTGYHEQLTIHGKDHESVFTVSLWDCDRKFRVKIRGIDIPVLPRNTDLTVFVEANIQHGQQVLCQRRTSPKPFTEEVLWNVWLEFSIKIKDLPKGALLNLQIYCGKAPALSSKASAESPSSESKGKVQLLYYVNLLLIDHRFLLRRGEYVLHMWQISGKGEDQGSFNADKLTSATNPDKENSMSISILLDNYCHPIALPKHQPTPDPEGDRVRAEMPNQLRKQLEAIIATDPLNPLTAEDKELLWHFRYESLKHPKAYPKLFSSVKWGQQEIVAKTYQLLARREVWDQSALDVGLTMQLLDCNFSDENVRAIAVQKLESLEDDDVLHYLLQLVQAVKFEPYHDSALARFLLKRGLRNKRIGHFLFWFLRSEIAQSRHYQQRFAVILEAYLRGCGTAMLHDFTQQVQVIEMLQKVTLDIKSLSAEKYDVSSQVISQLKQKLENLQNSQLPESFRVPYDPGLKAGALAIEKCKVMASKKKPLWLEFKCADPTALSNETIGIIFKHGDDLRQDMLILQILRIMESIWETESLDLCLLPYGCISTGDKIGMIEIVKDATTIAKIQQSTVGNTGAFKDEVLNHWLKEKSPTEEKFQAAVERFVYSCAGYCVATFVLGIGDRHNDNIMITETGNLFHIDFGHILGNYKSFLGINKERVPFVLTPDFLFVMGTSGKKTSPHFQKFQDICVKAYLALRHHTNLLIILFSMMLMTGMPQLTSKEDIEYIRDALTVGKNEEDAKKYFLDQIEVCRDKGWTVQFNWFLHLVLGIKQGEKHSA
PI3K-alpha, sequence (P42336 whole entry, species assumed): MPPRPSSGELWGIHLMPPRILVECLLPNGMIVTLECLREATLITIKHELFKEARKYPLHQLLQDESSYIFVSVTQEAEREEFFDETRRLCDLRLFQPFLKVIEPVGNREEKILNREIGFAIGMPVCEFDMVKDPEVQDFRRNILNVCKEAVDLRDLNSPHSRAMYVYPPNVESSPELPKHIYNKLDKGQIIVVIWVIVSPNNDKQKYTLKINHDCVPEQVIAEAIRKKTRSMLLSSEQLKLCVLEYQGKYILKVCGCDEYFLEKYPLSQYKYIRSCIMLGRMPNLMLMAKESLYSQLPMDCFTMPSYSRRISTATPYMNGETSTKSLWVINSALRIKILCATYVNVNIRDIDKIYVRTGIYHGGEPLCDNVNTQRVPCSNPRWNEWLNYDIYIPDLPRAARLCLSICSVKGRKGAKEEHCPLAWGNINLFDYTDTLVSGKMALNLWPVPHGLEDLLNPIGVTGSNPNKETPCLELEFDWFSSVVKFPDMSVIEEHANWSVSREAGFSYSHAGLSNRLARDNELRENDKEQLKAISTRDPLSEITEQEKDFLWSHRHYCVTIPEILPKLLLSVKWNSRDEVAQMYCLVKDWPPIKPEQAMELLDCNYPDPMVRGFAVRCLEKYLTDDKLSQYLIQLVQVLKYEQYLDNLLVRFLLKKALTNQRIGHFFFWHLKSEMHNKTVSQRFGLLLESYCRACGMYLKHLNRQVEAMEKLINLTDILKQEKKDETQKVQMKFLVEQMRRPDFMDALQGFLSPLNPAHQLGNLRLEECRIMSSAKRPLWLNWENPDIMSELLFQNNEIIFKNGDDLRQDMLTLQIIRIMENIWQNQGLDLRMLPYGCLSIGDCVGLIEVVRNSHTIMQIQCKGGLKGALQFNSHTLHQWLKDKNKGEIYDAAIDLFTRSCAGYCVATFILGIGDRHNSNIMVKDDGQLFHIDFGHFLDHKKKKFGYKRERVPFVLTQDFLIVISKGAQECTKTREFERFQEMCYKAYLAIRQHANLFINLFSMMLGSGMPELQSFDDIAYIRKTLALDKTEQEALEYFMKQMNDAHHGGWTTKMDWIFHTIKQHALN
PI3K-alpha, sequence (P27986 whole entry partner, species assumed): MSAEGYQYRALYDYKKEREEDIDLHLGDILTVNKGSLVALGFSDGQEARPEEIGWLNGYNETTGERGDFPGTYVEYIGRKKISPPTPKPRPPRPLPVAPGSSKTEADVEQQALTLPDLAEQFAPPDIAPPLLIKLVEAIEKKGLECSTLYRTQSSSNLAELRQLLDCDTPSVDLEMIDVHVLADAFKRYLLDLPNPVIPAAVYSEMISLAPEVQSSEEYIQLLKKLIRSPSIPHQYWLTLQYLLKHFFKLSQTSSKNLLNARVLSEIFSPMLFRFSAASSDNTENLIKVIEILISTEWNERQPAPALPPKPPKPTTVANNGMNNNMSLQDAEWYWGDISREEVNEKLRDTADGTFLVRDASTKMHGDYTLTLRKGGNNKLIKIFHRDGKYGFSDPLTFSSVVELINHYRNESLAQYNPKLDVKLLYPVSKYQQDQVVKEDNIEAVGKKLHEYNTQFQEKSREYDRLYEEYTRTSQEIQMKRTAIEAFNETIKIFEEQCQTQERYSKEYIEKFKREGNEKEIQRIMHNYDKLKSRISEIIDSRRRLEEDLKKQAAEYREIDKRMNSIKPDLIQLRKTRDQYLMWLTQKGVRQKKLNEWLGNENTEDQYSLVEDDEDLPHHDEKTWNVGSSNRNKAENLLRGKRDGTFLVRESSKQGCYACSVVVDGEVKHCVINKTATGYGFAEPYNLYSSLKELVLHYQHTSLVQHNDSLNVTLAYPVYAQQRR
PI3K-delta, sequence (O00329 whole entry, species assumed): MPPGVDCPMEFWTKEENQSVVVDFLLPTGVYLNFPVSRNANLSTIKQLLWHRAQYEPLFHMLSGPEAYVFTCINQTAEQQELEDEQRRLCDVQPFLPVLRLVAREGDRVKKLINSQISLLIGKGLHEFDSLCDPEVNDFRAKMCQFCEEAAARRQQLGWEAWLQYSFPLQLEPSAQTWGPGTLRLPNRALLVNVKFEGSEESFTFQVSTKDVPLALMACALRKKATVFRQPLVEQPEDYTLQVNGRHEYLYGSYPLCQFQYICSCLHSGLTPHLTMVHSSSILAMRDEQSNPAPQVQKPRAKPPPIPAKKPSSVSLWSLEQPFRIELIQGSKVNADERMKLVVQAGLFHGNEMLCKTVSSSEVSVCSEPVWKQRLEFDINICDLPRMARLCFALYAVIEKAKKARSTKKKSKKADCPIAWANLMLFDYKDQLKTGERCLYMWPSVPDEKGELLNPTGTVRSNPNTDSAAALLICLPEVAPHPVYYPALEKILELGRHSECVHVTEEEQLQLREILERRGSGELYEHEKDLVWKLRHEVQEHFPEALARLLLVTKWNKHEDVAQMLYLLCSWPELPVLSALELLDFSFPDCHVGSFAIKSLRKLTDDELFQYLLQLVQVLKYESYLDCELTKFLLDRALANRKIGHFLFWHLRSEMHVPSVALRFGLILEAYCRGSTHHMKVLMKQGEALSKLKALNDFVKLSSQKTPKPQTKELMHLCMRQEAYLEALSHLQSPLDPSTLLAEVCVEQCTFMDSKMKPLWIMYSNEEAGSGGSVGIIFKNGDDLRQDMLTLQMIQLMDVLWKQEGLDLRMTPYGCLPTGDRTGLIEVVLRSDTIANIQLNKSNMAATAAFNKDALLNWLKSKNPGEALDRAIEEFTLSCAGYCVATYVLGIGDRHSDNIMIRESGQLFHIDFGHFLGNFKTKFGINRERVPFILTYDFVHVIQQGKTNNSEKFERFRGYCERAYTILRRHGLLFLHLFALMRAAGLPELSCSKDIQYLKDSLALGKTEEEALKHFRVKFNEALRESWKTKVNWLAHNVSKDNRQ
PI3K-delta, sequence (P27986 whole entry partner, species assumed): as the sequence (P27986 whole entry partner, species assumed) above
PI3K-beta, sequence (P42338 whole entry, species assumed): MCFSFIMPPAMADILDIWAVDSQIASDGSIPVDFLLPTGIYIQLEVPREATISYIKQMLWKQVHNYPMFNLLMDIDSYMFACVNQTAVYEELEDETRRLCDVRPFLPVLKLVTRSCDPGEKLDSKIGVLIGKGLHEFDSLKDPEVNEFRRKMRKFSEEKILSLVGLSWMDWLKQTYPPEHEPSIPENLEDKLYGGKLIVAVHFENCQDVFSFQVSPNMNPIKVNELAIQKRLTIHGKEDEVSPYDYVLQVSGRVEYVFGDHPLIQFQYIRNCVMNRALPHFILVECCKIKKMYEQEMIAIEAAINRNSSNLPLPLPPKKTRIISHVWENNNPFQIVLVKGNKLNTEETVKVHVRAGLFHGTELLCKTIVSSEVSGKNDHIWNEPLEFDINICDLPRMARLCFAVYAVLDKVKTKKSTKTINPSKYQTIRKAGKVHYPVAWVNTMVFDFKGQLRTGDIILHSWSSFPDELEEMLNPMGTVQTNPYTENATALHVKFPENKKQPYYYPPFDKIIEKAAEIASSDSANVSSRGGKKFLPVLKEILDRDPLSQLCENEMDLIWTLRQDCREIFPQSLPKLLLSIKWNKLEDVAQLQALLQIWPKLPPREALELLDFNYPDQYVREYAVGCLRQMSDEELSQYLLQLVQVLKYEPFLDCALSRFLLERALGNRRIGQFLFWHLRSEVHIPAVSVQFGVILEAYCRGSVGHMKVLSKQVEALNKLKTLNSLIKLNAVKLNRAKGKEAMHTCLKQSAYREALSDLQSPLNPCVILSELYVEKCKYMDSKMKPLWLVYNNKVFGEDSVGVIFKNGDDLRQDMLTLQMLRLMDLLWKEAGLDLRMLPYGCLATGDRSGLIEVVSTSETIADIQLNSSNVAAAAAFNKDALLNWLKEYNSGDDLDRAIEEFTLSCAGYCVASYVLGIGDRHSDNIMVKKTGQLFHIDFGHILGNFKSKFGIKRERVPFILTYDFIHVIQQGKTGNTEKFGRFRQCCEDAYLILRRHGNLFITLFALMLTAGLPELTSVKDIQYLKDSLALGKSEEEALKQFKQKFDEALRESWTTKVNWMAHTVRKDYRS
PI3K-beta, sequence (P27986 whole entry partner, species assumed): as the sequence (P27986 whole entry partner, species assumed) above

With `COc1ccc2c(c1)c(/C=C1\Oc3cc(O)cc(O)c3C1=O)c(C(=O)N(C)C)n2CCN1CCN(C)CC1` [Example 316, 3-[(Z)-(4,6-Dihydroxy-3-oxo-1-benzofuran-2(3H)-ylidene)methyl]-5-methoxy-N,N-dimethyl-1-[2-(4-methylpiperazin-1-yl)ethyl]-1H-indole-2-carboxamide], the IC50 is below 2.7 nM on PI3K-alpha (read-out: PI3Kα Avg. IC50); 25 nM on PI3K-beta; 278 nM against PI3K-gamma; 1.5 nM on PI3K-delta; 14.5 nM on human TOR.

Take `COc1ccc2c(c1)c(C=C1Oc3cc(O)cc(O)c3C1=O)c(C)n2CCN(C)C` [Example 110, 2-({1-[2-(dimethylamino)ethyl]-5-methoxy-2-methyl-1H-indol-3-yl}methylene)-4,6-dihydroxy-1-benzofuran-3(2H)-one]: the IC50 on PI3K-alpha (read-out: PI3Kα Avg. IC50) was found to be 9.3 nM; on PI3K-beta, 32 nM; against PI3K-gamma, 283 nM; on PI3K-delta, 6.5 nM; at human TOR it was 17.5 nM.

On to `Cc1[nH]c2ccc(Br)cc2c1/C=C1\Oc2cc(O)cc(O)c2C1=O` [Example 61, (2Z)-2-[(5-bromo-2-methyl-1H-indol-3-yl)methylene]-4,6-dihydroxy-1-benzofuran-3(2H)-one], for which the IC50 came to 179 nM at PI3K-alpha (PI3Kα Avg. IC50); 567 nM on PI3K-beta; 2220 nM against PI3K-gamma; 374 nM at PI3K-delta; 190 nM at human TOR.

`COc1ccc2c(c1)c(/C=C1\Oc3cc(O)ccc3C1=O)c(C)n2CCN1CCN(C)CC1` [Example 303, (2Z)-6-Hydroxy-2-({5-methoxy-2-methyl-1-[2-(4-methylpiperazin-1-yl)ethyl]-1H-indol-3-yl}methylene)-1-benzofuran-3(2H)-one]: the half-inhibitory concentration (IC50) was 2.2 nM at PI3K-alpha (read-out: PI3Kα Avg. IC50); 3.5 nM on PI3K-beta; 70 nM on PI3K-gamma; below 2 nM on PI3K-delta; 1.93 nM on human TOR.

On to `COc1ccc2c(c1)c(C=C1Oc3cc(O)cc(O)c3C1=O)cn2CCCCN1CCOCC1` [Example 115, 4,6-dihydroxy-2-{[5-methoxy-1-(4-morpholin-4-ylbutyl)-1H-indol-3-yl]methylene}-1-benzofuran-3(2H)-one], for which the IC50 on PI3K-alpha (read-out: PI3Kα Avg. IC50) amounted to 39.3 nM; on PI3K-beta, 136 nM; at PI3K-gamma, 1190 nM; on PI3K-delta, 8.5 nM; at human TOR it was 980 nM.

On to `COc1ccc2c(c1)c(/C=C1\Oc3cc(O)cc(O)c3C1=O)c(C(=O)N(C)C)n2CCCN(C)C` [Example 343, 3-[(Z)-(4,6-Dihydroxy-3-oxo-1-benzofuran-2(3H)-ylidene)methyl]-1-[3-(dimethylamino)propyl]-5-methoxy-N,N-dimethyl-1H-indole-2-carboxamide], for which the IC50 on PI3K-alpha (read-out: PI3Kα Avg. IC50) was 12 nM; on PI3K-beta, 71 nM; on PI3K-gamma it was 292 nM; at PI3K-delta, 2.5 nM; at human TOR, above 160 nM.

Regarding `COc1ccc2c(c1)c(/C=C1\Oc3cc(O)cc(O)c3C1=O)c(C1CC1)n2CCN1CCC(O)C1` (stereo not drawn) [Example 342, (2Z)-2-({2-Cyclopropyl-1-[2-(3-hydroxypyrrolidin-1-yl)ethyl]-5-methoxy-1H-indol-3-yl}methylene)-4,6-dihydroxy-1-benzofuran-3(2H)-one], the IC50 on PI3K-alpha (read-out: PI3Kα Avg. IC50) worked out at 4.3 nM; on PI3K-beta it was 16.3 nM; at PI3K-gamma, 32.5 nM; on PI3K-delta it was 1.5 nM; at human TOR, 6.7 nM.

In the case of `COc1ccc2c(c1)c(/C=C1\Oc3cc(O)ccc3C1=O)c(C)n2CCCN1CCCCC1` [Example 357, (2Z)-6-Hydroxy-2-{[5-methoxy-2-methyl-1-(3-piperidin-1-ylpropyl)-1H-indol-3-yl]methylene}-1-benzofuran-3(2H)-one], the IC50 on PI3K-alpha (read-out: PI3Kα Avg. IC50) was 11 nM; at PI3K-beta, 98.5 nM; on PI3K-gamma it was 322 nM; at PI3K-delta it was below 1 nM; on human TOR it was above 800 nM.

As for `COc1ccc2c(c1)c(C=C1Oc3cc(O)cc(O)c3C1=O)c(C)n2CCCCN1CCN(CCN2CCOCC2)CC1` [Example 100, 4,6-dihydroxy-2-[(5-methoxy-2-methyl-1-{4-[4-(2-morpholin-4-ylethyl)piperazin-1-yl]butyl}-1H-indol-3-yl)methylene]-1-benzofuran-3(2H)-one], the IC50 on PI3K-alpha (read-out: PI3Kα Avg. IC50) was determined as 12 nM; on PI3K-beta, 12.5 nM; against PI3K-gamma it was 283 nM; at PI3K-delta, 3 nM; on human TOR, 55.5 nM.

With `COc1ccc2c(c1)c(C=C1Oc3cc(O)cc(O)c3C1=O)cn2CCN1CCN(CCO)CC1` [Example 111, 4,6-dihydroxy-2-[(1-{2-[4-(2-hydroxyethyl)piperazin-1-yl]ethyl}-5-methoxy-1H-indol-3-yl)methylene]-1-benzofuran-3(2H)-one], the 50% inhibitory concentration (IC50) at PI3K-alpha (read-out: PI3Kα Avg. IC50) amounted to 36.3 nM; at PI3K-beta, 169 nM; against PI3K-gamma it was 976 nM; at PI3K-delta, 21.5 nM; on human TOR it was 215 nM.

Take `O=C1/C(=C/c2c(-c3ccccc3)[nH]c3ccccc23)Oc2c1ccc(O)c2O` [Example 53, (2Z)-6,7-dihydroxy-2-[(2-phenyl-1H-indol-3-yl)methylene]-1-benzofuran-3(2H)-one]: the IC50 on PI3K-alpha (read-out: PI3Kα Avg. IC50) is 182 nM; on PI3K-beta it was 132 nM; on PI3K-gamma, 1470 nM; at PI3K-delta, 70.3 nM; at human TOR, above 30000 nM.

On to `COc1ccc2c(c1)c(/C=C1\Oc3cc(O)cc(O)c3C1=O)c(C)n2CCO` [Example 321, (2Z)-4,6-Dihydroxy-2-{[1-(2-hydroxyethyl)-5-methoxy-2-methyl-1H-indol-3-yl]methylene}-1-benzofuran-3(2H)-one], for which the IC50 on PI3K-alpha (read-out: PI3Kα Avg. IC50) came out at 2 nM; at PI3K-beta, 10 nM; on PI3K-gamma, 15.5 nM; at PI3K-delta it was 1.8 nM; at human TOR it was 6.85 nM.

In the case of `COc1cc2c(C=C3Oc4cc(O)cc(O)c4C3=O)c(C)[nH]c2cc1C` [Example 184, 4,6-dihydroxy-2-[(5-methoxy-2,6-dimethyl-1H-indol-3-yl)methylene]-1-benzofuran-3(2H)-one], the IC50 on PI3K-alpha (read-out: PI3Kα Avg. IC50) amounted to 102 nM; on PI3K-beta, 155 nM; against PI3K-gamma, 544 nM; at PI3K-delta it was 193 nM; at human TOR, 190 nM.

On to `COc1ccc2c(c1)c(C=C1Oc3cc(O)cc(O)c3C1=O)c(C)n2CCCN1CCN(CCN2CCOCC2)CC1` [Example 105, 4,6-dihydroxy-2-[(5-methoxy-2-methyl-1-{3-[4-(2-morpholin-4-ylethyl)piperazin-1-yl]propyl}-1H-indol-3-yl)methylene]-1-benzofuran-3(2H)-one], for which the IC50 at PI3K-alpha (read-out: PI3Kα Avg. IC50) was 9.6 nM; at PI3K-beta, 50.5 nM; at PI3K-gamma it was 724 nM; at PI3K-delta, 2 nM; at human TOR, 140 nM.

Turning to `COc1ccc2c(c1)c(C=C1Oc3cc(O)cc(O)c3C1=O)c(C)n2CCN1CCN(CCO)CC1` [Example 109, 4,6-dihydroxy-2-[(1-{2-[4-(2-hydroxyethyl)piperazin-1-yl]ethyl}-5-methoxy-2-methyl-1H-indol-3-yl)methylene]-1-benzofuran-3(2H)-one], the 50% inhibitory concentration (IC50) at PI3K-alpha (read-out: PI3Kα Avg. IC50) is 4.3 nM; at PI3K-beta, 18 nM; at PI3K-gamma, 321 nM; on PI3K-delta it was 2.8 nM; at human TOR it was below 23 nM.

For the molecule `COc1ccc2c(c1)c(C=C1Oc3cc(O)cc(O)c3C1=O)c(C)n2CCCCN1CCN(C)CC1` [Example 96, 4,6-dihydroxy-2-({5-methoxy-2-methyl-1-[4-(4-methylpiperazin-1-yl)butyl]-1H-indol-3-yl}methylene)-1-benzofuran-3(2H)-one], the IC50 at PI3K-alpha (read-out: PI3Kα Avg. IC50) is 11.3 nM; on PI3K-beta it was 10 nM; at PI3K-gamma, 238 nM; at PI3K-delta it was 2 nM; on human TOR, below 31 nM.

For the molecule `COc1ccc2c(c1)c(/C=C1\Oc3cc(O)cc(O)c3C1=O)c(C)n2CCn1ccnc1` [Example 328, (2Z)-4,6-Dihydroxy-2-({1-[2-(1H-imidazol-1-yl)ethyl]-5-methoxy-2-methyl-1H-indol-3-yl}methylene)-1-benzofuran-3(2H)-one], the IC50 was 6 nM at PI3K-alpha (read-out: PI3Kα Avg. IC50); 2.5 nM on PI3K-beta; 15.5 nM against PI3K-gamma; 2 nM at PI3K-delta; below 24 nM on human TOR.

In the case of `COc1ccc2c(c1)c(/C=C1\Oc3cc(O)cc(O)c3C1=O)cn2CC(=O)N(C)C` [Example 318, 2-{3-[(Z)-(4,6-Dihydroxy-3-oxo-1-benzofuran-2(3H)-ylidene)methyl]-5-methoxy-1H-indol-1-yl}-N,N-dimethylacetamide], the 50% inhibitory concentration (IC50) at PI3K-alpha (read-out: PI3Kα Avg. IC50) worked out at 83.3 nM; at PI3K-beta, 739 nM; against PI3K-gamma it was 686 nM; on PI3K-delta it was 27 nM; on human TOR it was 250 nM.

A word on the IC50: it is the concentration that inhibits the measured activity by half.
